Source: US20240181111A1, “SYSTEMS AND METHODS FOR AIR SANITIZATION USING FORMULAS CONTAINING AN ORGANIC ACID” (The Clorox Company, priority 2022, published 2024)
Values joined by “and” are separate entries in the source; they are usually repeats but may differ in a detail not shown here. Equal values may be shown once. Read-outs that look alike come from different tables or passages of the source.

What was measured:
[1] = cited from earlier work
[2] = cited from earlier work; remark: listed apart in the source
[3] = Candidate screening for antimicrobial synergy with lactic acid
Protocol: In addition to tested organic acids, a number of glycols, alcohols, diols and other candidates were also screened, for pairing with the organic acid. Viable candidates may also have: 1) a vapor pressure characteristics as noted above; 2) be soluble in water; and/or 3) have an ECHA Inhalation Threshold for the General Population of greater than 10 mg/m^3.
As such, while glycols may optionally be present, in an embodiment, the present formulations may be void, or substantially void of such glycol components (particularly propylene glycol and glycols including an ether group). The same may be said for various other candidate materials noted in Table 2.

[4] = cited from earlier work; remark: listed apart in the source
[5] = Acid dissociation of lactic acid; assay type: physicochemical; settings: at a pH of 2.2
From the text: In another aspect, the pH of the antimicrobial formulation is kept low. A low pH can be important for lactic acid or other acids to achieve air sanitization efficacy. […].

[6] = Table 2 candidates for pairing with the organic acid
[7] = Table 1 organic acids, standard conditions (e.g., 20° C. and 1 atmosphere)
[8] = organic acids, long term inhalation

CCC(O)CO (stereo not shown) [1,2-butanediol]
Vapor Pressure [1, 6]: 10 Pa | ECHA Inhalation Threshold for General Population ([2]; Table 2 candidates): No hazard identified

CCCCC(O)CO (stereo not shown) [1,2-hexanediol (HDO), 1,2-hexanediol]
antimicrobial synergy with lactic acid [3]: synergy with lactic acid

CC(O)CCO (stereo not shown) [1,3-butanediol]
Vapor Pressure [1, 6]: 26 Pa

CCCCCCCCCCCCO [1-dodecanol]
ECHA Inhalation Threshold for General Population ([2]; Table 2 candidates): 77 mg/m^3

O=C(O)CCO [3-hydroxypropionic acid]
Solubility in water (g of compound in 100 g of water at ~20° C.) [4]: Very soluble^1

CC(=O)O [acetic acid]
Vapor Pressure [1, 7]: 2080^3 Pa | ECHA local effects DNEL ([2]; local effects): 25 mg/m^3)^1

O=C(O)CCCCC(=O)O [adipic acid]
Vapor Pressure [1, 7]: 9.70^1 Pa

O=C(O)c1ccccc1 [benzoic acid]
Vapor Pressure [1, 7]: 0.11^1 Pa | ECHA Inhalation Threshold for General Population [2, 8]: 1.5^3 mg/m^3

O=C(O)CO [glycolic acid]
ECHA Inhalation Threshold for General Population [2, 8]: 2.6 mg/m^3 and 2.6^3 mg/m^3

CCCCCCC(=O)O [heptanoic acid]
Solubility in water (g of compound in 100 g of water at ~20° C.) [4]: 0.2^2 g of compound in 100 g of water

CCCCCC(=O)O [hexanoic acid]
Vapor Pressure [1, 7]: 5.80^1 Pa | ECHA Inhalation Threshold for General Population [2, 8]: 4.35^3 mg/m^3

CC(O)C(=O)O (stereo not shown) [lactic acid]
fraction of lactic acid in the acidic form [5]: at least 95%

O=C(O)CC(=O)O [malonic acid]
ECHA Inhalation Threshold for General Population [2, 8]: 1.04^3 mg/m^3

CC(=O)C(=O)O [pyruvic acid]
Solubility in water (g of compound in 100 g of water at ~20° C.) [4]: 100^1 g of compound in 100 g of water | solubility ([4]; standard conditions (room temperature and 1 atm)): about 100 g/100 g water
